PMC11444201, “A Novel Tetrahydroacridine Derivative with Potent Acetylcholinesterase Inhibitory Properties and Dissociative Capability against Aβ42 Fibrils Confirmed by In Vitro Studies” (International Journal of Molecular Sciences, 2024)
Where a name gives a salt, the structure may show the parent alone.

Key:
[1] = molecular target: acetylcholinesterase (AChE) (Electrophorus electricus, UniProt O42275); assay: modified Ellman spectrophotometric assay with isolated enzyme; format: biochemical
[2] = molecular target: T1, amyloid β 1-42 (Aβ42) fibrils (Homo sapiens, UniProt P05067); assay: thioflavin T fluorescence fibril dissociation assay (DC50), supported by AFM; format: biochemical
T1 construct: gene APP; amyloid β 1-42 peptide, preformed fibrils
T1 sequence (P05067 672-713): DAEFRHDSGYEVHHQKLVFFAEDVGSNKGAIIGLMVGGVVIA

Chain of acetylcholinesterase (AChE) (O42275 24-633): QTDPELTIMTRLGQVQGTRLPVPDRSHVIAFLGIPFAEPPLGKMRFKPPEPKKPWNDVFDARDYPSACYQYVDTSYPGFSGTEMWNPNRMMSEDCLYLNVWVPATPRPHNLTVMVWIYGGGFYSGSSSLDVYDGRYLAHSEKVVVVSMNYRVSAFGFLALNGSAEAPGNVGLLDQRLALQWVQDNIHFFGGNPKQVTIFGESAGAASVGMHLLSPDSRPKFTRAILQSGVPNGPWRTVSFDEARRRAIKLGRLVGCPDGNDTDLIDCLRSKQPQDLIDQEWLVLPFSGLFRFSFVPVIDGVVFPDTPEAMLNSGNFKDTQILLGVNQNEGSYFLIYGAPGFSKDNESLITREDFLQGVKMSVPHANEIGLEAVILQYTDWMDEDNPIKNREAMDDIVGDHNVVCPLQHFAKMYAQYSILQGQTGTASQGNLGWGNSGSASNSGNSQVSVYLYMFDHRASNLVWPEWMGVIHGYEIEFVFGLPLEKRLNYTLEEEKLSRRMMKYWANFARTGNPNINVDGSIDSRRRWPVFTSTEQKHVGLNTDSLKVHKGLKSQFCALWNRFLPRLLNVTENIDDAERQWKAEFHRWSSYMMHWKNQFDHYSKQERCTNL

Clc1cc2c3c(c4c(nc3c1)CCCC4)NCCN2 [CHDA, 6-chloro-1,2,3,4,9,10,11,12-octahydro-[1,4]-diazepine-[5,6,7-kl]-acridine Monohydrochloride]
IC50 [1]: 0.0185 ± 0.00568 µM
DC50 [2]: 70.8 µM
